Consider 7 compounds from ChEMBL document CHEMBL1155780, “Lack of aquaporin-4 water transport inhibition by antiepileptics and arylsulfonamides” (Bioorg Med Chem, 2008).

Each structure is given as a SMILES string.

Sequence of Aquaporin-4 (Homo sapiens) (P55087 whole entry): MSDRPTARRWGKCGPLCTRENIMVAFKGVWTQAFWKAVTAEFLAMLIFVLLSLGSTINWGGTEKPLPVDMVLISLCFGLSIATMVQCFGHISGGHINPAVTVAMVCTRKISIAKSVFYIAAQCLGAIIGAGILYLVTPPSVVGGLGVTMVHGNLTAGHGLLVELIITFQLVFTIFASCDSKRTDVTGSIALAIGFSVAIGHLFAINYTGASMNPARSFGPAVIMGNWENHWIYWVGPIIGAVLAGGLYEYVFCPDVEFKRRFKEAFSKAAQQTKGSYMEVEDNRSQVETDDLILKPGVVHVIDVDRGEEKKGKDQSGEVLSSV

The test concerns the target Aquaporin-4 (Homo sapiens) (UniProt P55087). The settings on record: FRT.
Description: Inhibition of AQP4 expressed in rat FRT cells assessed as osmotic water permeability at 100 uM after 15 mins by stopped-flow light scattering method
Compound `CNS(=O)(=O)Cc1ccc2[nH]cc(CCN(C)C)c2c1` had a permeability of 0.0129 cm/s.
For `NS(=O)(=O)Cc1noc2ccccc12`, the permeability was 0.0129 cm/s.
For the compound `O=C1NC(=O)C(c2ccccc2)(c2ccccc2)N1`, the permeability stood at 0.0129 cm/s.
In turn, `CC(=O)Nc1nnc(S(N)(=O)=O)s1` showed a permeability of 0.0129 cm/s.
As for `CCOc1ccc2nc(S(N)(=O)=O)sc2c1`, the permeability came out at 0.0129 cm/s.
The result for `CC(=O)Nc1ccc(S(N)(=O)=O)cc1` reads 0.0129 cm/s; that for `CC1(C)O[C@@H]2[C@@H](CO[C@@]3(COS(N)(=O)=O)OC(C)(C)O[C@@H]23)O1`, 0.0129 cm/s.
